Calls of active or inactive are those of the source. The rule behind the calls is not given here.
Assays:
HT-1080 [1] = assay: Cytotoxicity against human HT-1080 cells assessed as cell viability incubated for 24 hrs by CCK-8 assay; conditions: HT-1080, 24 h
[2] = Selectivity index, ratio of IC50 for cytotoxicity against human HT-1080 cells assessed as cell viability incubated for 24 hrs by CCK-8 assay to IC50 for induction of ferroptosis in human HT-1080 cells assessed as reduction in cell viability incubated for 24 hrs […] by CCK-8 assay; type: functional
HT-1080 [3] = assay: Induction of ferroptosis in human HT-1080 cells assessed as reduction in cell viability incubated for 24 hrs in presence of Fer-1 by CCK-8 assay; conditions: HT-1080, 24 h
[4] = target: T1, Phospholipid hydroperoxide glutathione peroxidase GPX4 (Homo sapiens, UniProt P36969); assay: Binding affinity to human GPX4 assessed as dissociation constant by MST assay
T1 sequence (P36969 whole entry): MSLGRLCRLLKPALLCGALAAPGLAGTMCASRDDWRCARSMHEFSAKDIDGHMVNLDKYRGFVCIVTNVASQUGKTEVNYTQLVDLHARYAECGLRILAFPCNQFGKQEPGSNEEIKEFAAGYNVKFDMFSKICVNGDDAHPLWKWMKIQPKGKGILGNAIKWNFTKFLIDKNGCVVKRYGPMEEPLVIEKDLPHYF

HT-1080 [5] = assay: Induction of ferroptosis in human HT-1080 cells assessed as increase in cellular ROS level at 0.5 uM incubated for 3 hrs by DCFH-DA staining based flow cytometry analysis; type: functional, cell-based
HT-1080 [6] = assay: Induction of ferroptosis in human HT-1080 cells assessed as increase in cellular LPO level at 0.5 uM incubated for 3 hrs by BIODPY-C11 probe based flow cytometry analysis; type: functional, cell-based
HT-1080 [7] = assay: Induction of morphological changes in human HT-1080 cells assessed as […] of mitochondria cristas by TEM analysis; type: functional, cell-based
HT-1080 [8] = assay: Induction of ferroptosis in human HT-1080 cells assessed as increase in cellular ROS level at 0.1 uM incubated for 3 hrs by DCFH-DA staining based flow cytometry analysis; type: functional, cell-based
HT-1080 [9] = assay: Induction of morphological changes in human HT-1080 cells assessed as appearance of round shaped mitochondria by TEM analysis; type: functional, cell-based
HT-1080 [10] = assay: Induction of ferroptosis in human HT-1080 cells assessed as increase in cellular MDA level at 0.1 uM incubated for 6 hrs; type: functional, cell-based
HT-1080 [11] = assay: Induction of ferroptosis in human HT-1080 cells assessed as increase in cellular LPO level at 0.1 uM incubated for 3 hrs by BIODPY-C11 probe based flow cytometry analysis; type: functional, cell-based

SMILES | IC50 (HT-1080 [3]) | IC50 (HT-1080 [1]) | Ratio IC50 [2] | other results
O=C(NCCc1ccccc1)C(c1csc2ccccc12)N(C(=O)c1ccc([N+](=O)[O-])o1)c1ccc(-c2cnco2)cc1 (stereo not given) |  | > 5000 nM |  | 
C#Cc1nc(C(=O)N(c2ccc(-c3cnco3)cc2)C(C(=O)NC(C)(C)C)c2cc[nH]n2)cs1 (stereo not given) | 7160 nM | 375 nM | 19 | 
C#Cc1nc(C(=O)N(c2ccc(C(F)(F)F)cc2)C(C(=O)NC(C)(C)C)c2csc3ccccc23)cs1 (stereo not given) | 8410 nM | 27 nM | 311 | 
O=C(NCCc1ccccc1)C(c1csc2ccccc12)N(C(=O)c1ccc([N+](=O)[O-])s1)c1ccc(-c2cnco2)cc1 (stereo not given) |  | > 5000 nM |  | 
C#Cc1nc(C(=O)N(c2ccc(-c3cnco3)cc2)C(C(=O)NC(C)(C)C)C2CCCCC2)cs1 (stereo not given) | 8160 nM | 354 nM | 23 | 
C#Cc1nc(C(=O)N(c2ccc(-c3cnco3)cc2)C(C(=O)NC(C)(C)C)c2ccc[nH]2)cs1 (stereo not given) | 7410 nM | 120 nM | 61.7 | 
C#Cc1nc(C(=O)N(c2ccc(-c3cnco3)cc2)C(C(=O)NC(C)(C)C)c2cccs2)cs1 (stereo not given) | 6790 nM | 341 nM | 19.9 | 
COC(=O)c1ccc([C@H]2c3[nH]c4ccccc4c3C[C@H](C(=O)OC)N2C(=O)CCl)cc1 |  |  |  | Kd [4]: 43.7 nM; Activity (HT-1080 [5]): Active; Activity (HT-1080 [6]): Active
O=C(NCCc1ccccc1)C(c1csc2ccccc12)N(C(=O)c1cc([N+](=O)[O-])[nH]n1)c1ccc(-c2cnco2)cc1 (stereo not given) |  | > 5000 nM |  | 
C#Cc1nc(C(=O)N(c2ccc(-n3cccn3)cc2)C(C(=O)NC(C)(C)C)c2csc3ccccc23)cs1 (stereo not given) | 6830 nM | 239 nM | 29 | 
C#Cc1nc(C(=O)N(c2ccc(-c3cnco3)cc2)C(C(=O)NC(C)(C)C)c2ccncn2)cs1 (stereo not given) | 8160 nM | 354 nM | 23 | 
Cc1onc(C(=O)N(c2ccc(-c3cnco3)cc2)C(C(=O)NCCc2ccccc2)c2csc3ccccc23)c1[N+](=O)[O-] (stereo not given) |  | > 5000 nM |  | 
C#Cc1nc(C(=O)N(c2ccc(-c3cnco3)cc2)C(C(=O)NCCc2ccccc2)c2csc3ccccc23)cs1 (stereo not given) | 9030 nM | 21 nM | 430 | 
C#Cc1nc(C(=O)N(c2ccc(-c3cnco3)cc2)C(C(=O)NC(C)(C)C)c2ccsc2)cs1 (stereo not given) | 6340 nM | 207 nM | 30.6 | 
C#Cc1nc(C(=O)N(c2ccc(-c3cnco3)cc2)[C@H](C(=O)NC(C)(C)C)c2csc3ccccc23)cs1 | 11700 nM | 12 nM |  | 
C#Cc1nc(C(=O)N(c2ccc(-c3cnco3)cc2)C(C(=O)NC(C)(C)C)c2cncs2)cs1 (stereo not given) | 9430 nM | 500 nM | 17 | 
C#Cc1nc(C(=O)N(c2ccc(-c3cnco3)cc2)C(C(=O)NC(C)(C)C)c2c[nH]c3ccccc23)cs1 (stereo not given) | 8420 nM | 98 nM | 86 | 
C#Cc1nc(C(=O)N(c2ccc(-c3cnco3)cc2)C(C(=O)NC(C)(C)C)c2cccc3ccccc23)cs1 (stereo not given) | 8650 nM | 22 nM | 393 | 

Continued, in another order:

IC50 (HT-1080 [3]) | SMILES | IC50 (HT-1080 [1]) | Ratio IC50 [2] | other results
6200 nM | C#Cc1nc(C(=O)N(c2ccc(-c3cnco3)cc2)C(C(=O)NC(C)(C)C)C2=CCCOC2)cs1 (stereo not given) | 415 nM | 15 | 
4230 nM | C#Cc1nc(C(=O)N(c2ccc(-n3cncn3)cc2)C(C(=O)NC(C)(C)C)c2csc3ccccc23)cs1 (stereo not given) | 356 nM | 12 | 
3750 nM | C=CC(=O)N(c1ccc(-c2cnco2)cc1)C(C(=O)NCCc1ccccc1)c1csc2ccccc12 (stereo not given) | 64 nM | 58 | 
4760 nM | C#Cc1nc(C(=O)N(c2ccc(-n3ccnc3)cc2)C(C(=O)NC(C)(C)C)c2csc3ccccc23)cs1 (stereo not given) | 345 nM | 14 | 
6140 nM | C#Cc1nc(C(=O)N(c2ccc(-c3cnco3)cc2)C(C(=O)NC(C)(C)C)c2c[nH]cn2)cs1 (stereo not given) | 459 nM | 13 | 
4750 nM | C#CC(=O)N(c1ccc(-c2cnco2)cc1)C(C(=O)NCCc1ccccc1)c1csc2ccccc12 (stereo not given) | 425 nM | 11 | 
6120 nM | C#Cc1nc(C(=O)N(c2ccc(-c3cnco3)cc2)C(C(=O)NCc2ccccc2)c2csc3ccccc23)cs1 (stereo not given) | 32 nM | 191 | 
4600 nM | O=C(NCCc1ccccc1)C(c1csc2ccccc12)N(C(=O)CCl)c1ccc(-c2cnco2)cc1 (stereo not given) | 121 nM | 38 | Kd [4]: 24.7 nM; Activity (HT-1080 [7]): Active; Activity (HT-1080 [8]): Active; Activity (HT-1080 [9]): Active; Activity (HT-1080 [10]): Active; Activity (HT-1080 [11]): Active
3870 nM | C#Cc1nc(C(=O)N(c2ccc(-c3cnco3)cc2)C(C(=O)NC2CCCCC2)c2csc3ccccc23)cs1 (stereo not given) | 17 nM | 228 | 
3050 nM | C#Cc1nc(C(=O)N(c2ccc(-c3cnco3)cc2)C(C(=O)NC(C)(C)C)c2csc3ccccc23)cs1 (stereo not given) | 70 nM |  | 

— ChEMBL document CHEMBL6096736, “Development of a Highly Selective Ferroptosis Inducer Targeting GPX4 with 2-Ethynylthiazole-4-carboxamide as Electrophilic Warhead” (J Med Chem, 2025)
